Reference: ChEMBL document CHEMBL5346907, “Discovery of a novel oral type Ⅰ CDK8 inhibitor against acute myeloid leukemia” (Eur J Med Chem, 2023)
Activity calls are given as the source filed them. The rule behind the calls is not given here.

What was measured:
[1] = target: Tyrosine-protein kinase CSK (Homo sapiens) (UniProt P41240); experiment: Inhibition of CSK (unknown origin) at 1 uM preincubated for 10 mins followed by substrate addition measured for 60 to 120 mins by HTRF assay relative to control; settings: time 70-130 min
[2] = target: CDK18/Cyclin Y (Homo sapiens) (UniProt Q07002+Q8ND76); experiment: Inhibition of CDK18/CyclinY (unknown origin) at 1 uM preincubated for 10 mins followed by substrate addition measured for 60 to 120 mins by HTRF assay relative to control; type: protein-complex assay; settings: time 70-130 min
[3] = target: Tyrosine-protein kinase BTK (Homo sapiens) (UniProt Q06187); experiment: Inhibition of BTK (unknown origin) at 1 uM preincubated for 10 mins followed by substrate addition measured for 60 to 120 mins by HTRF assay relative to control; settings: time 70-130 min
[4] = target: Focal adhesion kinase 1 (Homo sapiens) (UniProt Q05397); experiment: Inhibition of FAK (unknown origin) at 1 uM preincubated for 10 mins followed by substrate addition measured for 60 to 120 mins by HTRF assay relative to control; settings: time 70-130 min
[5] = test system: MV4-11; experiment: Antiproliferative activity against human MV4-11 cells incubated for 48 hrs by CCK8 assay; type: functional
[6] = target: Macrophage-stimulating protein receptor (Homo sapiens) (UniProt Q04912); experiment: Inhibition of RON (unknown origin) at 1 uM preincubated for 10 mins followed by substrate addition measured for 60 to 120 mins by HTRF assay relative to control; settings: time 70-130 min
[7] = test system: HL-60; experiment: Induction of apoptosis in human HL-60 cells assessed as late apoptotic cells at 1 uM incubated for 48 hrs by annexin V-FITC/PI staining based flow cytometry (reference value: 1.07 %); type: functional
[8] = target: CDK6/cyclin D1 (Homo sapiens, UniProt Q00534); experiment: Inhibition of CDK6/Cyclin D1 (unknown origin) preincubated for 10 mins followed by substrate addition measured for 60 to 120 mins by HTRF assay; type: protein-complex assay
[9] = test system: HL-60; experiment: Induction of apoptosis in human HL-60 cells assessed as viable cells at 5 uM incubated for 48 hrs by annexin V-FITC/PI staining based flow cytometry (reference value: 96.5 %); type: functional; settings: read-out: Activity
[10] = test system: C1498; experiment: Downregulation of STAT1 S727 phosphorylation in mouse C1498 cells allografted in AML Balb/C mouse model at 40 to 80 mg/kg, po administered daily for 15 days measured after 3 weeks by IHC analysis; type: functional, organism-based; settings: dose 40-80 mg/kg, time 15.0 day
[11] = target: Tyrosine-protein kinase ITK/TSK (Homo sapiens) (UniProt Q08881); experiment: Inhibition of ITK (unknown origin) at 1 uM preincubated for 10 mins followed by substrate addition measured for 60 to 120 mins by HTRF assay relative to control; settings: time 70-130 min
[12] = test system: HCT-116; experiment: Downregulation of STAT1 S727 expression in IFNgamma-stimulated human HCT-116 cells incubated for 12 hrs followed by IFNgamma stimulation for 3 hrs by Western blot analysis; type: functional, cell-based; settings: dose 1-10 µM
[13] = Tmax in Sprague-Dawley rat at 2 mg/kg, iv; type: ADME, organism-based; settings: in vivo
[14] = target: Cyclin-dependent kinase 2/cyclin E1 (Homo sapiens) (UniProt P24864+P24941); experiment: Inhibition of CDK2/Cyclin E1 (unknown origin) at 1 uM preincubated for 10 mins followed by substrate addition measured for 60 to 120 mins by HTRF assay relative to control; type: protein-complex assay; settings: time 70-130 min
[15] = test system: HL-60; experiment: Induction of apoptosis in human HL-60 cells assessed as early apoptosis cells at 5 uM incubated for 48 hrs by annexin V-FITC/PI staining based flow cytometry (reference value: 2.08 %); type: functional
[16] = test system: A549; experiment: Antiproliferative activity against human A549 cells incubated for 48 hrs by CCK8 assay; type: functional
[17] = target: NT-3 growth factor receptor (Homo sapiens) (UniProt Q16288); experiment: Inhibition of TRKC (unknown origin) at 1 uM preincubated for 10 mins followed by substrate addition measured for 60 to 120 mins by HTRF assay relative to control; settings: time 70-130 min
[18] = target: CDK6/cyclin D1 (Homo sapiens) (UniProt P24385+Q00534); experiment: Inhibition of CDK6/Cyclin D1 (unknown origin) at 1 uM preincubated for 10 mins followed by substrate addition measured for 60 to 120 mins by HTRF assay relative to control; type: protein-complex assay; settings: time 70-130 min
[19] = target: Fibroblast growth factor receptor 3 (Homo sapiens) (UniProt P22607); experiment: Inhibition of FGFR3 (unknown origin) at 1 uM preincubated for 10 mins followed by substrate addition measured for 60 to 120 mins by HTRF assay relative to control; settings: time 70-130 min
[20] = Tmax in Sprague-Dawley rat at 10 mg/kg, po; type: ADME, organism-based; settings: in vivo
[21] = target: Fibroblast growth factor receptor 1 (Homo sapiens) (UniProt P11362); experiment: Inhibition of FGFR1 (unknown origin) at 1 uM preincubated for 10 mins followed by substrate addition measured for 60 to 120 mins by HTRF assay relative to control; settings: time 70-130 min
[22] = target: ALK tyrosine kinase receptor (Homo sapiens) (UniProt Q9UM73); experiment: Inhibition of ALK (unknown origin) at 1 uM preincubated for 10 mins followed by substrate addition measured for 60 to 120 mins by HTRF assay relative to control; settings: time 70-130 min
[23] = MRT in Sprague-Dawley rat at 10 mg/kg, po; type: ADME, organism-based; settings: in vivo
[24] = test system: GES1; experiment: Antiproliferative activity against human GES1 cells incubated for 48 hrs by CCK8 assay; type: functional
[25] = target: Tyrosine-protein kinase Fyn (Homo sapiens) (UniProt P06241); experiment: Inhibition of FYN b (unknown origin) at 1 uM preincubated for 10 mins followed by substrate addition measured for 60 to 120 mins by HTRF assay relative to control; settings: time 70-130 min
[26] = target: Proto-oncogene tyrosine-protein kinase ROS (Homo sapiens) (UniProt P08922); experiment: Inhibition of ROS (unknown origin) at 1 uM preincubated for 10 mins followed by substrate addition measured for 60 to 120 mins by HTRF assay relative to control; settings: time 70-130 min
[27] = target: CDK12/Cyclin K (Homo sapiens) (UniProt O75909+Q9NYV4); experiment: Inhibition of CDK12/Cyclin K (unknown origin) at 1 uM preincubated for 10 mins followed by substrate addition measured for 60 to 120 mins by HTRF assay relative to control; type: protein-complex assay; settings: time 70-130 min
[28] = target: Protein-tyrosine kinase 2-beta (Homo sapiens) (UniProt Q14289); experiment: Inhibition of PYK2 (unknown origin) at 1 uM preincubated for 10 mins followed by substrate addition measured for 60 to 120 mins by HTRF assay relative to control; settings: time 70-130 min
[29] = target: Cyclin-Y/Cyclin-dependent kinase 16 (Homo sapiens) (UniProt Q00536+Q8ND76); experiment: Inhibition of CDK16/CyclinY (unknown origin) at 1 uM preincubated for 10 mins followed by substrate addition measured for 60 to 120 mins by HTRF assay relative to control; type: protein-complex assay; settings: time 70-130 min
[30] = Clearance in Sprague-Dawley rat at 2 mg/kg, iv; type: ADME, organism-based; settings: in vivo
[31] = target: Ephrin type-A receptor 4 (Homo sapiens) (UniProt P54764); experiment: Inhibition of EPHA4 (unknown origin) at 1 uM preincubated for 10 mins followed by substrate addition measured for 60 to 120 mins by HTRF assay relative to control; settings: time 70-130 min

Chain of Fibroblast growth factor receptor 1 (Homo sapiens) (P11362 22-822 limits assumed): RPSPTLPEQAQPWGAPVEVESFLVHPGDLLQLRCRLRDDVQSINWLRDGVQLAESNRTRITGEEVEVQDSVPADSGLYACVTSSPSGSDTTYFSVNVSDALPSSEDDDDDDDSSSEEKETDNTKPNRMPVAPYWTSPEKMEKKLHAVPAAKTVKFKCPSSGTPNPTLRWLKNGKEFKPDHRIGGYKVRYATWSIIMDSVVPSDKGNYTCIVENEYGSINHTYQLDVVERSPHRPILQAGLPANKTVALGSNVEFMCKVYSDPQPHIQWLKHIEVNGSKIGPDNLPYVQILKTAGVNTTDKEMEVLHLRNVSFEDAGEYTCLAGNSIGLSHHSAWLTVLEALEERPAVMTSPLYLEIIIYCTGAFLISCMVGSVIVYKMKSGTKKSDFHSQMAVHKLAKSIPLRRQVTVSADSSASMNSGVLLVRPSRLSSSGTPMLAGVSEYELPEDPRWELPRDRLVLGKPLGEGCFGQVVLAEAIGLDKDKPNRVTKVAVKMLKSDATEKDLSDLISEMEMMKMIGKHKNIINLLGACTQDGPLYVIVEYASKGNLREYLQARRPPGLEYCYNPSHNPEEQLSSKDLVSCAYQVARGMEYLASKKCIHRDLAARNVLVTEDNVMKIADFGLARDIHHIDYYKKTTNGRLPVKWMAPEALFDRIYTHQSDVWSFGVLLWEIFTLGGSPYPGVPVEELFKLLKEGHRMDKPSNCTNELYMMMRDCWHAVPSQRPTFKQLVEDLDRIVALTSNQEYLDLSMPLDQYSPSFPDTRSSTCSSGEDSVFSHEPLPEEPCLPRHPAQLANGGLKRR
Chain of NT-3 growth factor receptor (Homo sapiens) (Q16288 32-839 limits assumed): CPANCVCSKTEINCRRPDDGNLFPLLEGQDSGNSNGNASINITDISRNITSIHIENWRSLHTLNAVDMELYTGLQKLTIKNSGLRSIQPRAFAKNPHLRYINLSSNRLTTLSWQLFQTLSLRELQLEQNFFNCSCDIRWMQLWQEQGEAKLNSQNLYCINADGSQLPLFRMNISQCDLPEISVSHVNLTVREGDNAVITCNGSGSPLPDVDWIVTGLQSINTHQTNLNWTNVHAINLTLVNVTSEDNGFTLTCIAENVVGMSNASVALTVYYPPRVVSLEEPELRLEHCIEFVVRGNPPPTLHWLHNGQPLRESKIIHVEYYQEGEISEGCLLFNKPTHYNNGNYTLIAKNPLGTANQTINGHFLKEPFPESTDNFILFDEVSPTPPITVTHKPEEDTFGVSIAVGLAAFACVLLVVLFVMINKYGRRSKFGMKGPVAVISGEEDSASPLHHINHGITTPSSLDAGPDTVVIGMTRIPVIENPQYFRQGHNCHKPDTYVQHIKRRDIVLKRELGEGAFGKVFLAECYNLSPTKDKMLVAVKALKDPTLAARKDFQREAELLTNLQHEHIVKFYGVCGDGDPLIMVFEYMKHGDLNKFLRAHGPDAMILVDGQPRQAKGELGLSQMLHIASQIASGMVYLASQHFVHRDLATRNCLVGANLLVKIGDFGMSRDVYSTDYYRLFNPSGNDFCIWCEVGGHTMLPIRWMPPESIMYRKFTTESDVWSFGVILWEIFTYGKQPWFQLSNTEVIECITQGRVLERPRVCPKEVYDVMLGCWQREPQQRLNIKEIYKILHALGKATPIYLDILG
Chain of Tyrosine-protein kinase BTK (Homo sapiens) (Q06187 whole entry): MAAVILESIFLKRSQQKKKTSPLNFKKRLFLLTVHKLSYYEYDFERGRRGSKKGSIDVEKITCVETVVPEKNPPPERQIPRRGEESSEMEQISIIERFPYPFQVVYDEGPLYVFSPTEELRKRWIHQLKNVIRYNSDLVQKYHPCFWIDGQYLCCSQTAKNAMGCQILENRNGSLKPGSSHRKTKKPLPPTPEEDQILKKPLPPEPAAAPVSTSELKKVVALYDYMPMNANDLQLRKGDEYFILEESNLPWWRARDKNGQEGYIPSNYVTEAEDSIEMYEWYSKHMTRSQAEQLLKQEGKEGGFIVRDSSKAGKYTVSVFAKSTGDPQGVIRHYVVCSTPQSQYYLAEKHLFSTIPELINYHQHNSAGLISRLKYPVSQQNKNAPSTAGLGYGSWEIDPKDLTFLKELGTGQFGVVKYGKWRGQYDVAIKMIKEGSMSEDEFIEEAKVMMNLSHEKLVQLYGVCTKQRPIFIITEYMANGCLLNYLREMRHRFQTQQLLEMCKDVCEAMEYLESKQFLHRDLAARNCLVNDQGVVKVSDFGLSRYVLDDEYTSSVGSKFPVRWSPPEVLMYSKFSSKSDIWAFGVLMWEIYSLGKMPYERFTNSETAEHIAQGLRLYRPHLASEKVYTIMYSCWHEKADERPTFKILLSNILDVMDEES
Chain of ALK tyrosine kinase receptor (Homo sapiens) (Q9UM73 19-1620 limits assumed): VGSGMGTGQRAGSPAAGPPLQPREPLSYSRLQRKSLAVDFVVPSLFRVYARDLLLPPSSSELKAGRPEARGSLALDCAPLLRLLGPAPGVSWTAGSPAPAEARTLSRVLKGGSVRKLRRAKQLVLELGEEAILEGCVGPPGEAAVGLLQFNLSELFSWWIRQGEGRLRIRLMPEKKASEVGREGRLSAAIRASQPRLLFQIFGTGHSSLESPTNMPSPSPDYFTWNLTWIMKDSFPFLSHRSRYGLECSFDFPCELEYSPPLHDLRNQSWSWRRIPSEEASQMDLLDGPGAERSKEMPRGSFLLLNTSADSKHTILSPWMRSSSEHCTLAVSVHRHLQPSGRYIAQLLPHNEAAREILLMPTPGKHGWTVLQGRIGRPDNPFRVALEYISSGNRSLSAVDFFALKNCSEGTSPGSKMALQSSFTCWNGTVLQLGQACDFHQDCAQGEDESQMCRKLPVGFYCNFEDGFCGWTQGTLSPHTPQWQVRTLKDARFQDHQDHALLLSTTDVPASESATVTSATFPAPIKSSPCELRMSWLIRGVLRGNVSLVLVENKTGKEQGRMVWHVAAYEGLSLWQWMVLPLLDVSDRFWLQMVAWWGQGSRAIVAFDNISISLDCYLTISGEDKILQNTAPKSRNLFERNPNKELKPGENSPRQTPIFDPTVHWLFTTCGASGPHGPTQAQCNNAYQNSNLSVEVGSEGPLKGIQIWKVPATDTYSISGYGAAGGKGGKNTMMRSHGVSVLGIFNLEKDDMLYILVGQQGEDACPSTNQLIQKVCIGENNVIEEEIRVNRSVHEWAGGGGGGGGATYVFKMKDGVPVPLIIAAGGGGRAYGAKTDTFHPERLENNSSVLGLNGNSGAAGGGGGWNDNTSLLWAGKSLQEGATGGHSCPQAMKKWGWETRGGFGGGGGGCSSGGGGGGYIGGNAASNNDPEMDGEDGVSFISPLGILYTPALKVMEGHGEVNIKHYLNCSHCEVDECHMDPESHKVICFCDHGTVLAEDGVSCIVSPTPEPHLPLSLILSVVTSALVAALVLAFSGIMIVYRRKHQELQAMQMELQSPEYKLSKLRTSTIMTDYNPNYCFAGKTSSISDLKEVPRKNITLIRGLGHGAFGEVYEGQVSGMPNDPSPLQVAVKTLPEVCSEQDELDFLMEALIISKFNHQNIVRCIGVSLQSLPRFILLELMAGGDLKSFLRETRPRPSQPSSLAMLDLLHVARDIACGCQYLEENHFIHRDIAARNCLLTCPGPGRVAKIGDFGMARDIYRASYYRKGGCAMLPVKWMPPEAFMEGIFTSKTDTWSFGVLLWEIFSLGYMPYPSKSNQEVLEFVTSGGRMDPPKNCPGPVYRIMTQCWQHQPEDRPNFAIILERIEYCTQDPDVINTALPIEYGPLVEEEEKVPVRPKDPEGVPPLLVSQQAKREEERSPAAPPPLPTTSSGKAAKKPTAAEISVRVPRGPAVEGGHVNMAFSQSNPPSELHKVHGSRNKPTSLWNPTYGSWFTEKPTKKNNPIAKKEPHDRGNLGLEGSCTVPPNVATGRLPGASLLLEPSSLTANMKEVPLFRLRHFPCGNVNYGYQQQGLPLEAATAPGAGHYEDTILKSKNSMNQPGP
Chain of Focal adhesion kinase 1 (Homo sapiens) (Q05397 2-1052 limits assumed): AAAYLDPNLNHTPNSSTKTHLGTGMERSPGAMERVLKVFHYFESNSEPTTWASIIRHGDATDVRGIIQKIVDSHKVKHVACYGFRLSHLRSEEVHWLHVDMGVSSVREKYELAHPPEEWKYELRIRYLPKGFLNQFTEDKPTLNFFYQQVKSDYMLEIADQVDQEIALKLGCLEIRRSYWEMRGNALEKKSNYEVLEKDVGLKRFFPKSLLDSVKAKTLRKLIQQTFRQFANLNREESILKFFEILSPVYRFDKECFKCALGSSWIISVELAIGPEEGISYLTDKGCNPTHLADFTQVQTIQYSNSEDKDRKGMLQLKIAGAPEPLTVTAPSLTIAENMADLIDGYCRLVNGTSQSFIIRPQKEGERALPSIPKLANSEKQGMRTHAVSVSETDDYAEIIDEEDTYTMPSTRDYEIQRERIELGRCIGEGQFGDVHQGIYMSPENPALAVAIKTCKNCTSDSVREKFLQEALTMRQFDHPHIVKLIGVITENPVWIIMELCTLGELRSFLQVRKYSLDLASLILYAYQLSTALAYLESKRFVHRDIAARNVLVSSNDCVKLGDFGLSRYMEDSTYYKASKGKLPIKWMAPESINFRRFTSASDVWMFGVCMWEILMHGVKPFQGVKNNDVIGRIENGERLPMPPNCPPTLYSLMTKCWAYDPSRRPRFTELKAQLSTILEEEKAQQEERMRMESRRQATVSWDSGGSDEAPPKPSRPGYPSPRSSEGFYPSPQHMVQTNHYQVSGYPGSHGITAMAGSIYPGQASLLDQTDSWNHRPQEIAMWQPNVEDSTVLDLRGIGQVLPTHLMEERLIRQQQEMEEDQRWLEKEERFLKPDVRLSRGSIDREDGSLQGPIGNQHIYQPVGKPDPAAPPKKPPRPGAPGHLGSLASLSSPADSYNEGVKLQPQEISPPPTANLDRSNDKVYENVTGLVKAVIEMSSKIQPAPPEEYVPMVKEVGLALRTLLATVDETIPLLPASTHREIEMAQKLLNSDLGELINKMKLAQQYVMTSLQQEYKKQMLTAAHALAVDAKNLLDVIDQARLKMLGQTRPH

NC(=O)c1cccc(-c2cnc3[nH]ccc3c2)c1
inhibition [1]: 0%
inhibition [2]: 3.47%
inhibition [3]: 5.27%
inhibition [4]: 6.16%
GI50 [5]: 4.61 µM
inhibition [6]: 0.43%
Activity [7]: 38%
IC50 [8]: 594 nM
viability at 5 µM [9]: 9.73%
Activity [10]: Active
inhibition [11]: 0%
Activity [12]: Dose-Dependent Effect
Tmax [13]: 4.98 min
inhibition [14]: 9.01%
Activity [15]: 22.4%
GI50 [16]: > 50 µM
inhibition [17]: 10.8%
inhibition [18]: 0.37%
inhibition [19]: 10.8%
Tmax [20]: 1 h
inhibition [21]: 28.1%
inhibition [22]: 19.1%
MRT [23]: 2.47 h
GI50 [24]: > 100 µM
inhibition [25]: 24.8%
inhibition [26]: 8.63%
inhibition [27]: 0.16%
inhibition [28]: 3.1%
inhibition [29]: 16.6%
clearance [30]: 118 mL/min/kg
inhibition [31]: 1.96%
